Laboratory results as given in ChEMBL document CHEMBL4364250, “Improvement of Asparagine Ethylenediamines as Anti-malarial Plasmodium-Selective Proteasome Inhibitors” (J Med Chem, 2019).

Tests used:
HepG2 = assay: Cytotoxicity against human HepG2 cells; format: cell-based
[1] = tested on: beta5 subunit of human 20S constitutive proteasome; assay: Selectivity ratio of IC50 for human beta5 20S constitutive proteasome to IC50 for Plasmodium falciparum 20S proteasome beta5 subunit; format: toxicity; details: read-out: Ratio IC50
[2] = biological target: T1, Proteasome Macropain subunit MB1 (Homo sapiens, UniProt P28074); assay: Inhibition of human beta5 20S constitutive proteasome using suc-LLVY-AMC as substrate
T1 sequence (P28074 whole entry): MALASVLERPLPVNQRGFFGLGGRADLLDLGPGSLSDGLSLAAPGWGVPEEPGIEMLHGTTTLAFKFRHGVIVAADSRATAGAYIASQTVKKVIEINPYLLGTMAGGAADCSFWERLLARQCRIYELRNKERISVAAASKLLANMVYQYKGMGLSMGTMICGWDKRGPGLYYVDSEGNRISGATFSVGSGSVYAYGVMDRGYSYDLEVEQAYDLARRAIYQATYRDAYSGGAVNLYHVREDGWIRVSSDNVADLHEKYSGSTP

Plasmodium falciparum [3] = assay: Antimalarial activity against erythrocytic stage of Plasmodium falciparum 3D7 measured after 72 hrs by SYBR green dye based fluorescence assay; format: functional, organism-based; details: 3D7, 72 h
Karpas-1106P = assay: Cytotoxicity against human KARPAS1106P cells; format: cell-based
[4] = Inhibition of Plasmodium falciparum 20S proteasome beta5 subunit using suc-LLVY-AMC as substrate in presence of beta2 inhibitor WLW-VS
[5] = tested on: beta5 subunit of human 20S immunoproteasome; assay: Selectivity ratio of IC50 for human beta5 20S immunoproteasome to IC50 for Plasmodium falciparum 20S proteasome beta5 subunit; format: toxicity; details: read-out: Ratio IC50
[6] = biological target: T2, Proteasome subunit beta type-8 (Homo sapiens, UniProt P28062); assay: Inhibition of human beta5 20S immunoproteasome using Ac-ANW-AMC as substrate
T2 sequence (P28062 whole entry): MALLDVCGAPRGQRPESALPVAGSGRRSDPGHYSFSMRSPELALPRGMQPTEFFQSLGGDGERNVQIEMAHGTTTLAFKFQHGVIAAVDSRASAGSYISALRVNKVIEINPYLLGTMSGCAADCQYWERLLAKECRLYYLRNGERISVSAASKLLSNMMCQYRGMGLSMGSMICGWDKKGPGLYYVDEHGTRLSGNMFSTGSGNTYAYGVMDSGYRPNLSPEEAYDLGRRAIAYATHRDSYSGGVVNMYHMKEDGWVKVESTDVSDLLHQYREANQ

Plasmodium falciparum [7] = assay: Antimalarial activity against erythrocytic stage of Plasmodium falciparum Dd2 harboring 20S beta5 proteasome A49S mutant measured after 72 hrs by SYBR green dye based fluorescence assay; format: functional, organism-based; details: Dd2, 72 h
Plasmodium falciparum [8] = assay: Resistance index, ratio of EC50 for erythrocytic stage of Plasmodium falciparum Dd2 harboring 20S beta5 proteasome A49S mutant to EC50 erythrocytic stage of Plasmodium falciparum Dd2; format: functional
Plasmodium falciparum [9] = assay: Antimalarial activity against erythrocytic stage of Plasmodium falciparum Dd2 measured after 72 hrs by SYBR green dye based fluorescence assay; format: functional, organism-based; details: Dd2, 72 h
Plasmodium falciparum [10] = assay: Resistance index, ratio of EC50 for erythrocytic stage of Plasmodium falciparum Dd2 harboring 20S beta6 proteasome A117D mutant to EC50 erythrocytic stage of Plasmodium falciparum Dd2
Plasmodium falciparum [11] = assay: Antimalarial activity against erythrocytic stage of Plasmodium falciparum Dd2 harboring 20S beta2 proteasome A117D mutant measured after 72 hrs by SYBR green dye based fluorescence assay; format: functional, organism-based; details: Dd2, 72 h
[12] = Clearance in rat liver microsomes; format: ADME, Microsome; details: read-out: CLH
[13] = Clearance in human liver microsomes; format: ADME, Microsome; details: read-out: CLH
[14] = Clearance in mouse liver microsomes; format: ADME, Microsome; details: read-out: CLH

SMILES | EC50 (HepG2) [µM] | selectivity ratio [1] | IC50 [2] [µM] | EC50 (Plasmodium falciparum [3]) [µM] | EC50 (Karpas-1106P) [µM] | IC50 [4] [µM] | selectivity ratio [5] | IC50 [6] [µM] | EC50 (Plasmodium falciparum [7]) [µM] | Ratio EC50 (Plasmodium falciparum [8]) | EC50 (Plasmodium falciparum [9]) [µM] | Ratio EC50 (Plasmodium falciparum [10]) | EC50 (Plasmodium falciparum [11]) [µM] | microsomal CLint [12] [µL/min/mg] | microsomal CLint [13] [µL/min/mg] | microsomal CLint [14] [µL/min/mg]
Cc1ccc(S(=O)(=O)N[C@@H](CC(=O)NC(C)(C)C)C(=O)NCCNS(=O)(=O)c2ccccc2)cc1 | > 11 | > 6.6 | > 100 | > 2.77 | > 11.1 | 15.1 | 0.2 | 2.89 | – | – | – | – | – | – | – | –
Cc1ccc(S(=O)(=O)N[C@@H](CC(=O)NC(C)(C)C)C(=O)NCCNC(=O)c2ccccc2O)cc1 | > 11 | 67 | 0.409 | 0.0096 | > 11.1 | 0.0061 | 4 | 0.024 | – | – | – | – | – | – | – | –
Cc1ccc(S(=O)(=O)N[C@@H](CC(=O)NC(C)(C)C)C(=O)NCCNC(=O)c2ccc(Cl)cc2)cc1 | > 11 | 44 | 5 | 0.13 | > 11.1 | 0.113 | 0.3 | 0.038 | – | – | – | – | – | – | – | –
Cc1cc(C(=O)N[C@@H](CC(=O)NC(C)(C)C)C(=O)NCCNC(=O)c2cccc(-n3cccn3)c2)no1 | – | – | – | – | – | – | – | – | > 2.77 | >100 | 0.0276 | 10 | 0.279 | – | – | –
Cc1ccc(S(=O)(=O)N[C@@H](CC(=O)NC(C)(C)C)C(=O)NCCNC(=O)c2cccc(C(F)(F)F)c2)cc1 | > 11 | 148 | 37.1 | 0.167 | > 11.1 | 0.25 | 3.1 | 0.763 | – | – | – | – | – | – | – | –
Cc1ccc(S(=O)(=O)N[C@@H](CC(=O)NC(C)(C)C)C(=O)NCCNC(=O)NCc2ccccc2)cc1 | > 11 | 16.8 | 46.6 | 2.14 | > 11.1 | 2.77 | 0.85 | 2.35 | – | – | – | – | – | – | – | –
Cc1ccc(S(=O)(=O)N[C@@H](CC(=O)NC(C)(C)C)C(=O)NCCNC(=O)c2cccc(C(C)C)c2)cc1 | > 11 | 225 | 9.12 | 0.0985 | > 11.1 | 0.0404 | 5 | 0.2 | – | – | – | – | – | – | – | –
CC(C)(C)NC(=O)C[C@H](NC(=O)CCc1ccccc1)C(=O)NCCNC(=O)c1cccc(-c2ccccc2)c1 | – | – | – | – | – | – | – | – | 1.35 | 541 | 0.0025 | 130 | 0.326 | – | – | –
Cc1ccc(S(=O)(=O)N[C@@H](CC(=O)NC(C)(C)C)C(=O)NCCNC(=O)c2cccc(C#N)c2)cc1 | > 11 | 103 | 40.2 | 0.132 | > 11.1 | 0.39 | 12 | 4.69 | – | – | – | – | – | – | – | –
Cc1ccc(S(=O)(=O)N[C@@H](CC(=O)NC(C)(C)C)C(=O)NCCNC(=O)c2cc(C)ccn2)cc1 | > 11 | > 156 | > 100 | 0.227 | > 11.1 | 0.639 | 4.9 | 3.11 | – | – | – | – | – | – | – | –
Cc1ccc(S(=O)(=O)N[C@@H](CC(=O)NC(C)(C)C)C(=O)NCCNC(=O)c2cc(Cl)ccn2)cc1 | > 11 | > 110 | > 100 | 0.283 | > 11.1 | 0.911 | 3.9 | 3.56 | – | – | – | – | – | – | – | –
Cc1ccc(S(=O)(=O)N[C@@H](CC(=O)NC(C)(C)C)C(=O)NCCNC(=O)c2ccccc2Cl)cc1 | > 11 | 123 | 26 | 0.098 | > 11.1 | 0.211 | 6.6 | 1.4 | – | – | – | – | – | – | – | –
COc1cc(OC)cc(C(=O)NCCNC(=O)[C@H](CC(=O)NC(C)(C)C)NS(=O)(=O)c2ccc(C)cc2)c1 | > 11 | > 24.7 | > 100 | > 2.77 | > 11.1 | 4.06 | 2.5 | 9.97 | – | – | – | – | – | – | – | –
Cc1ccc(S(=O)(=O)N[C@@H](CC(=O)NC(C)(C)C)C(=O)NCCNC(=O)Nc2ccccc2)cc1 | > 11 | > 3.9 | > 100 | > 2.77 | > 11.1 | 2.58 | 0.8 | 2.09 | – | – | – | – | – | – | – | –
Cc1ccc(S(=O)(=O)N[C@@H](CC(=O)NC(C)(C)C)C(=O)NCCNC(=O)c2cccc(F)c2)cc1 | > 11 | 74 | 2.2 | 0.0117 | > 11.1 | 0.0296 | 4.3 | 0.128 | – | – | – | – | – | – | – | –
Cc1ccc(S(=O)(=O)N[C@@H](CC(=O)NC(C)(C)C)C(=O)NCCNC(=O)c2ccccn2)cc1 | > 11 | 27 | 29.4 | > 2.77 | > 11.1 | 1.09 | 1.9 | 2.09 | – | – | – | – | – | – | – | –
Cc1ccc(S(=O)(=O)N[C@@H](CC(=O)NC(C)(C)C)C(=O)NCCNC(=O)c2c(O)cccc2F)cc1 | > 11 | 13 | 0.54 | 0.0837 | > 11.1 | 0.0405 | 1.8 | 0.0727 | – | – | – | – | – | – | – | –
Cc1ccc(S(=O)(=O)N[C@@H](CC(=O)NC(C)(C)C)C(=O)NCCNC(=O)c2cccc(O)c2)cc1 | > 11 | 195 | 4.38 | 0.0154 | > 11.1 | 0.0224 | 21 | 0.475 | – | – | – | – | – | – | – | –
Cc1ccc(S(=O)(=O)N[C@@H](CC(=O)NC(C)(C)C)C(=O)NCCNC(=O)c2ccc(F)c(F)c2)cc1 | > 11 | 48 | 6.04 | 0.0688 | > 11.1 | 0.126 | 1.5 | 0.195 | – | – | – | – | – | – | – | –
CC(C)C[C@@H](/C=C/S(C)(=O)=O)NC(=O)[C@H](CC(C)C)NC(=O)[C@H](Cc1c[nH]c2ccccc12)NC(=O)CN1CCOCC1 | – | – | – | – | – | – | – | – | 0.026 | 0.28 | 0.0916 | 0.08 | 0.0073 | – | – | –
CC(C)C[C@H](NC(=O)[C@H](Cc1ccccc1)NC(=O)c1cnccn1)B(O)O [BORTEZOMIB] | – | – | – | – | – | – | – | – | 1.02 | 2.4 | 0.419 | 0.25 | 0.106 | – | – | –
Cc1ccc(S(=O)(=O)N[C@@H](CC(=O)NC(C)(C)C)C(=O)NCCNC(=O)c2ccc(F)cc2)cc1 | > 11 | 55 | 6.7 | 0.0509 | > 11.1 | 0.121 | 1.5 | 0.179 | – | – | – | – | – | 81 | 149 | 49
Cc1ccc(S(=O)(=O)N[C@@H](CC(=O)NC(C)(C)C)C(=O)NCCNC(=O)c2cc(Cl)ccc2Cl)cc1 | > 11 | > 507 | > 100 | 0.118 | > 11.1 | 0.197 | 28.7 | 5.65 | – | – | – | – | – | – | – | –
